Experimental data from ChEMBL document CHEMBL1773008 (ACS Med Chem Lett, 2010).
Active and inactive are the calls of the source. The rule behind the calls is not given here.

Tests used:
SK-BR-3 [1] = experiment: Ratio of IC50 for compound to IC50 for novobiocin for human SKBR3 cells; assay type: functional
SK-BR-3 [2] = experiment: Antiproliferative activity against human SKBR3 cells after 72 hrs by MTS assay; assay type: functional, cell-based; details: SK-BR-3, 72 h
MCF7 [3] = experiment: Antiproliferative activity against human MCF7 cells after 72 hrs by MTS assay; assay type: functional, cell-based; details: MCF7, 72 h
[4] = target: Heat shock protein HSP 90-beta (Homo sapiens) (UniProt P08238); experiment: Inhibition of HSP90 in human MCF7 cells assessed as Her2 degradation at 0.5 to 7.5 uM after 24 hrs by Western blot analysis; assay type: cell-based
Sequence of Heat shock protein HSP 90-beta (Homo sapiens) (P08238 whole entry): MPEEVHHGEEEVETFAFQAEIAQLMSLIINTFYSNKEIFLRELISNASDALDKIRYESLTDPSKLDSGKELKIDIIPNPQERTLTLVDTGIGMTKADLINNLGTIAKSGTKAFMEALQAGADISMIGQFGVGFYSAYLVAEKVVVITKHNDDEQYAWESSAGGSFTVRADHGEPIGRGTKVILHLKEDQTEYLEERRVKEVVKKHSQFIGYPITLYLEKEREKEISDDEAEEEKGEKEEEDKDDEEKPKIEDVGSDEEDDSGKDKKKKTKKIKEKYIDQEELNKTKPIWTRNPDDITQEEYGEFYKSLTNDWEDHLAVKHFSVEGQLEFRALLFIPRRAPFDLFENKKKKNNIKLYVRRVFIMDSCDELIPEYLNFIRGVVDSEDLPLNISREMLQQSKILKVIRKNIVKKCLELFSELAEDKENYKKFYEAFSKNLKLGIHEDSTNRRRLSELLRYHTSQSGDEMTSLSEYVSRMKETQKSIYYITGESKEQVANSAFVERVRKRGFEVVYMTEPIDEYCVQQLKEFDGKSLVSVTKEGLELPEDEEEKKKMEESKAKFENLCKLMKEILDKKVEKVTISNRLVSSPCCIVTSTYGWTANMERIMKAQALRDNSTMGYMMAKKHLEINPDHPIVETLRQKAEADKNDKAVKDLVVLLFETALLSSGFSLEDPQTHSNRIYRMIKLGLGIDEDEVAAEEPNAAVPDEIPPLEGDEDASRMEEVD

[5] = target: Heat shock protein HSP 90-beta (Homo sapiens) (UniProt P08238); experiment: Inhibition of HSP90 in human MCF7 cells assessed as Akt degradation after 24 hrs by Western blot analysis; assay type: cell-based
[6] = target: Heat shock protein HSP 90-beta (Homo sapiens) (UniProt P08238); experiment: Inhibition of HSP90 in human MCF7 cells assessed as Her2 degradation at after 24 hrs by Western blot analysis; assay type: cell-based
[7] = target: Heat shock protein HSP 90-beta (Homo sapiens) (UniProt P08238); experiment: Inhibition of HSP90 in human MCF7 cells assessed as Akt degradation at 0.5 to 7.5 uM after 24 hrs by Western blot analysis; assay type: cell-based
[8] = target: Heat shock protein HSP 90-beta (Homo sapiens) (UniProt P08238); experiment: Inhibition of HSP90 in human MCF7 cells assessed as Raf degradation at 0.5 to 7.5 uM after 24 hrs by Western blot analysis; assay type: cell-based
[9] = target: Heat shock protein HSP 90-beta (Homo sapiens) (UniProt P08238); experiment: Inhibition of HSP90 in human MCF7 cells assessed as Raf degradation after 24 hrs by Western blot analysis; assay type: cell-based
SK-BR-3 [10] = experiment: Ratio of IC50 for compound to IC50 for DHN2 for human SKBR3 cells; assay type: functional
MCF7 [11] = experiment: Ratio of IC50 for compound to IC50 for novobiocin for human MCF7 cells; assay type: functional
[12] = target: Heat shock protein HSP 90-beta (Homo sapiens) (UniProt P08238); experiment: Inhibition of HSP90 in human MCF7 cells assessed as Her2 degradation at 0.5 to 100 uM after 24 hrs by Western blot analysis; assay type: cell-based
[13] = target: Heat shock protein HSP 90-beta (Homo sapiens) (UniProt P08238); experiment: Inhibition of HSP90 in human MCF7 cells assessed as Akt degradation at 0.5 to 100 uM after 24 hrs by Western blot analysis; assay type: cell-based
[14] = target: Heat shock protein HSP 90-beta (Homo sapiens) (UniProt P08238); experiment: Inhibition of HSP90 in human MCF7 cells assessed as Raf degradation at 0.5 to 100 uM after 24 hrs by Western blot analysis; assay type: cell-based

SMILES	IC50 (SK-BR-3 [2]) [nM]	IC50 (MCF7 [3]) [nM]	Ratio IC50 (SK-BR-3 [1])	other results
CC(=O)Oc1ccc(C(=O)Nc2cc3ccc(OC4CCCN(C)C4)c(C)c3oc2=O)cc1CC=C(C)C (stereo unspecified)	1420	1570		
CNCCOc1ccc2cc(NC(=O)c3ccc(O)c(CC=C(C)C)c3)c(=O)oc2c1C	750	1330		
CC(C)=CCc1cc(C(=O)Nc2cc3ccc(OC4CCCNC4)c(C)c3oc2=O)ccc1O (stereo unspecified)	790	1680		
CC(C)=CCc1cc(C(=O)Nc2cc3ccc(O[C@H]4C[C@H](O)CCO4)c(C)c3oc2=O)ccc1O	3110	1560	200	inhibition [5]: Dose-dependent effect; inhibition [6]: Dose-dependent effect; Ratio IC50 (SK-BR-3 [10]): 3; Ratio IC50 (MCF7 [11]): 200; inhibition [12]: Active; inhibition [13]: Active; inhibition [14]: Active; inhibition [9]: Dose-dependent effect
CC(C)=CCc1cc(C(=O)Nc2cc3ccc(OC4CCCN(C)C4)c(C)c3oc2=O)ccc1O (stereo unspecified)	4690	10100		
CC(=O)Oc1ccc(C(=O)Nc2cc3ccc(OC4CCCNC4)c(C)c3oc2=O)cc1CC=C(C)C (stereo unspecified)	1230	1540		
CC(C)=CCc1cc(C(=O)Nc2cc3ccc(O[C@@H]4C[C@H](O)CCO4)c(C)c3oc2=O)ccc1O	5070	1340	1500	
CC(C)=CCc1cc(C(=O)Nc2cc3ccc(O[C@@H]4OCCC[C@H]4O)c(C)c3oc2=O)ccc1O	30000	10200	1500	
CC(C)=CCc1cc(C(=O)Nc2cc3ccc(O[C@H]4OCC[C@@H](O)[C@H]4O)c(C)c3oc2=O)ccc1O	10700	10000	1500	
CC(=O)Oc1ccc(C(=O)Nc2cc3ccc(OC4CCN(C)CC4)c(C)c3oc2=O)cc1CC=C(C)C	580	1180		
CC(C)=CCc1cc(C(=O)Nc2cc3ccc(OCCN(C)C)c(C)c3oc2=O)ccc1O	9450	13500		

Further lines, with some results ahead:

IC50 (SK-BR-3 [2]) [nM]	IC50 (MCF7 [3]) [nM]	SMILES	Ratio IC50 (SK-BR-3 [1])	other results
22200	> 100000	CC(C)=CCc1cc(C(=O)Nc2cc3ccc(O[C@@H]4C[C@H](O)CO4)c(C)c3oc2=O)ccc1O	1500	
470	850	CC(C)=CCc1cc(C(=O)Nc2cc3ccc(OC4CCNCC4)c(C)c3oc2=O)ccc1O		inhibition [4]: Active; inhibition [5]: Dose-dependent effect; inhibition [6]: Dose-dependent effect; inhibition [7]: Active; inhibition [8]: Active; inhibition [9]: Dose-dependent effect
21500	22500	CC(C)=CCc1cc(C(=O)Nc2cc3ccc(O[C@H]4C[C@H](O)CO4)c(C)c3oc2=O)ccc1O	1500	
440	1350	CC(C)=CCc1cc(C(=O)Nc2cc3ccc(OCCCN(C)C)c(C)c3oc2=O)ccc1O		
1320	4760	CC(=O)Oc1ccc(C(=O)Nc2cc3ccc(OCCN(C)C)c(C)c3oc2=O)cc1CC=C(C)C		
10900	11300	CO[C@@H]1[C@@H](O)[C@@H](O)[C@H](Oc2ccc3cc(NC(=O)c4ccc(O)c(CC=C(C)C)c4)c(=O)oc3c2C)OC1(C)C	1500	
6960	13300	CC(C)=CCc1cc(C(=O)Nc2cc3ccc(O[C@@H]4OCC[C@@H](O)[C@H]4O)c(C)c3oc2=O)ccc1O	1500	
460	1180	CC(=O)Oc1ccc(C(=O)Nc2cc3ccc(OCCCN(C)C)c(C)c3oc2=O)cc1CC=C(C)C		
7870	6450	CC(C)=CCc1cc(C(=O)Nc2cc3ccc(O[C@H]4OCCC[C@H]4O)c(C)c3oc2=O)ccc1O	1500	
14400	14300	CC(C)=CCc1cc(C(=O)Nc2cc3ccc(O[C@@H]4OC[C@@H](O)[C@H]4O)c(C)c3oc2=O)ccc1O	1500	
	1090	CC(C)=CCc1cc(C(=O)Nc2cc3ccc(OC4CCN(C)CC4)c(C)c3oc2=O)ccc1O		
910	2080	CNCCOc1ccc2cc(NC(=O)c3ccc(OC(C)=O)c(CC=C(C)C)c3)c(=O)oc2c1C		
560	1530	CC(=O)Oc1ccc(C(=O)Nc2cc3ccc(OC4CCNCC4)c(C)c3oc2=O)cc1CC=C(C)C		
